Source: patent publication US10952436B2, “Microbiocidal quinoline (thio)carboxamide derivatives” (SYNGENTA PARTICIPATIONS AG, priority 2017, dated 2021)

Assays:
[1] = tested on: Botryotinia fuckeliana (Botrytis cinerea); experiment: Botryotinia fuckeliana (Botrytis cinerea)/Liquid Culture (Gray Mould); type: cell-based; settings: 200 ppm, liquid culture, compared to untreated control, 3-4 days after application, read-out: control of Botryotinia fuckeliana
Fusarium culmorum [2] = experiment: microbe, parasite or virus in culture; type: cell-based; settings: read-out: control of Fusarium culmorum
Fusarium culmorum [3] = experiment: whole plant or invertebrate; type: in vivo; settings: in Triticum aestivum, read-out: control of Fusarium culmorum
[4] = tested on: Glomerella lagenarium (Colletotrichum lagenarium); experiment: Glomerella lagenarium (Colletotrichum lagenarium)/Liquid Culture (Anthracnose); type: cell-based; settings: Colletotrichum orbiculare; 200 ppm; liquid culture, compared to untreated control, 3-4 days after application; read-out: control of Glomerella lagenarium
Gaeumannomyces graminis = experiment: Gaeumannomyces graminis/Liquid Culture (Take-all of Cereals); type: cell-based; settings: 200 ppm, liquid culture, compared to untreated control, 4-5 days after application, read-out: control of Gaeumannomyces graminis
[5] = tested on: Monographella nivalis (Microdochium nivale); experiment: Monographella nivalis (Microdochium nivale)/Liquid Culture (Foot Rot Cereals); type: cell-based; settings: 200 ppm, liquid culture, compared to untreated control, 4-5 days after application, read-out: control of Monographella nivalis
[6] = tested on: Magnaporthe grisea (Pyricularia oryzae); experiment: microbe, parasite or virus in culture; type: cell-based; settings: read-out: control of Magnaporthe grisea
[7] = tested on: Magnaporthe grisea (Pyricularia oryzae); experiment: whole plant or invertebrate; type: in vivo; settings: foliar, read-out: control of Magnaporthe grisea
Sclerotinia sclerotiorum = experiment: Sclerotinia sclerotiorum/Liquid Culture (Cottony Rot); settings: read-out: control of Sclerotinia sclerotiorum
Experimental: Mycelia fragments of a newly grown liquid culture of the fungus are directly mixed into nutrient broth (Vogels broth). After placing a (DMSO) solution of test compound into a microtiter plate (96-well format) the nutrient broth containing the fungal material is added. The test plates are incubated at 24° C. and the inhibition of growth is determined photometrically 3-4 days after application.

SMILES	inhibition of growth at 200 ppm [1]	inhibition of growth at 200 ppm (Fusarium culmorum [2])	pest or weed control at 200 ppm (Fusarium culmorum [3])	inhibition of growth at 200 ppm [4]	inhibition of growth at 200 ppm (Gaeumannomyces graminis)	inhibition of growth at 200 ppm [5]	inhibition of growth at 200 ppm [6]	pest or weed control at 200 ppm [7]	melting point	inhibition of growth at 20 ppm (Sclerotinia sclerotiorum)
CC(C)CC(C#N)(Cc1ccccc1)C(=O)Nc1cnc2c(F)cccc2c1 (centres unmarked) [Compound E-83, 2-benzyl-2-cyano-N-(8-fluoro-3-quinolyl)-4-methyl-pentanamide]	≥ 80%	≥ 80%	≥ 80%	≥ 80%	≥ 80%	≥ 80%	≥ 80%	–	–	–
C=C(C)CC(C)(Cc1ccccc1)C(=O)Nc1cc2cccc(F)c2nc1C (centres unmarked) [Compound E-66, 2-benzyl-N-(8-fluoro-2-methyl-3-quinolyl)-2,4-dimethyl-pent-4-enamide]	≥ 80%	≥ 80%	≥ 80%	≥ 80%	≥ 80%	≥ 80%	≥ 80%	–	–	–
CC(Cc1ccccc1)(CC1CC1(F)F)C(=O)Nc1cnc2c(F)cccc2c1 (centres unmarked) [Compound E-72, 2-benzyl-3-(2,2-difluorocyclopropyl)-N-(8-fluoro-3-quinolyl)-2-methyl-propanamide]	≥ 80%	≥ 80%	–	≥ 80%	≥ 80%	≥ 80%	≥ 80%	–	–	–
Cc1nc2c(Cl)cccc2cc1NC(=O)C(C)(Cc1ccccc1)CC(F)(F)F (centres unmarked) [Compound E-17, 2-benzyl-N-(8-chloro-2-methyl-3-quinolyl)-4,4,4-trifluoro-2-methyl-butanamide]	≥ 80%	≥ 80%	–	≥ 80%	–	≥ 80%	≥ 80%	≥ 80%	47 to 50 °C	≥ 80%
C=C(Cl)CC(C)(Cc1ccccc1)C(=O)Nc1cc2cccc(F)c2nc1C (centres unmarked) [Compound E-21, 2-benzyl-4-chloro-N-(8-fluoro-2-methyl-3-quinolyl)-2-methyl-pent-4-enamide]	≥ 80%	≥ 80%	≥ 80%	≥ 80%	–	–	≥ 80%	≥ 80%	121 to 123 °C	≥ 80%
Cc1c(NC(=O)C(Cc2ccccc2)CC(F)(F)F)cnc2c(F)cccc12 (centres unmarked) [Compound E-45, 2-benzyl-4,4,4-trifluoro-N-(8-fluoro-4-methyl-3-quinolyl)butanamide]	≥ 80%	≥ 80%	≥ 80%	≥ 80%	–	–	≥ 80%	≥ 80%	165 to 167 °C	≥ 80%
Cc1nc2c(F)cccc2cc1NC(=O)[C@@](C)(Cc1ccccc1)CC(F)(F)F [Compound F-12, (2S)-2-benzyl-4,4,4-trifluoro-N-(8-fluoro-2-methyl-3-quinolyl)-2-methyl-butanamide]	≥ 80%	≥ 80%	≥ 80%	≥ 80%	–	≥ 80%	≥ 80%	≥ 80%	135 to 136 °C	≥ 80%
Cc1nc2c(F)cccc2cc1NC(=O)[C@](C)(Cc1ccccc1)CC(F)(F)F [Compound F-11, (2R)-2-benzyl-4,4,4-trifluoro-N-(8-fluoro-2-methyl-3-quinolyl)-2-methyl-butanamide]	≥ 80%	≥ 80%	≥ 80%	≥ 80%	–	–	≥ 80%	≥ 80%	137 to 139 °C	≥ 80%
Cc1c(NC(=O)C(C)(Cc2ccccc2)CC(F)(F)F)cnc2c(F)cccc12 (centres unmarked) [Compound E-50, 2-benzyl-4,4,4-trifluoro-N-(8-fluoro-4-methyl-3-quinolyl)-2-methyl-butanamide]	≥ 80%	≥ 80%	≥ 80%	≥ 80%	–	≥ 80%	≥ 80%	≥ 80%	106 to 109 °C	≥ 80%
CC1(C[C@](C)(Cc2ccccc2)C(=O)Nc2cnc3c(F)cccc3c2)CC1 [Compound F-9, (2R)-2-benzyl-N-(8-fluoro-3-quinolyl)-2-methyl-3-(1-methylcyclopropyl) propanamide]	≥ 80%	≥ 80%	≥ 80%	≥ 80%	–	≥ 80%	≥ 80%	≥ 80%	62 to 64 °C	≥ 80%
CC(Cc1ccccc1)(CC1CC1(Cl)Cl)C(=O)Nc1cnc2c(F)cccc2c1 (centres unmarked) [Compound E-75, 2-benzyl-3-(2,2-dichlorocyclopropyl)-N-(8-fluoro-3-quinolyl)-2-methyl-propanamide]	≥ 80%	≥ 80%	–	≥ 80%	≥ 80%	–	≥ 80%	–	–	–
CC(C)C[C@@](C)(Cc1ccccc1)C(=O)Nc1cnc2c(F)cccc2c1 [Compound F-20, (2S)-2-benzyl-N-(8-fluoro-3-quinolyl)-2,4-dimethyl-pentanamide]	≥ 80%	≥ 80%	≥ 80%	≥ 80%	≥ 80%	≥ 80%	–	–	–	–
CC(C)(Cc1ccccc1)C(=O)Nc1cnc2c(F)cccc2c1 [Compound E-69, N-(8-fluoro-3-quinolyl)-2,2-dimethyl-3-phenyl-propanamide]	≥ 80%	≥ 80%	≥ 80%	≥ 80%	≥ 80%	≥ 80%	–	–	–	–
Cc1nc2c(Cl)cccc2cc1NC(=O)C(C)(Cc1ccccc1)CC(C)C (centres unmarked) [Compound E-13, 2-benzyl-N-(8-chloro-2-methyl-3-quinolyl)-2,4-dimethyl-pentanamide]	≥ 80%	≥ 80%	–	≥ 80%	–	≥ 80%	≥ 80%	≥ 80%	99 to 100 °C	≥ 80%
C=C(Cl)CC(C)(Cc1ccccc1)C(=O)Nc1cnc2c(F)cccc2c1C (centres unmarked) [Compound E-20, 2-benzyl-4-chloro-N-(8-fluoro-4-methyl-3-quinolyl)-2-methyl-pent-4-enamide]	≥ 80%	≥ 80%	≥ 80%	≥ 80%	–	≥ 80%	≥ 80%	≥ 80%	124 to 126 °C	≥ 80%
